Measured values as given in the supplement of paper PMC4862054.

Experiments:
Test in all cases: normalised viability (% of control), CellTiter-Blue; higher = more viable cells (about 100 = DMSO control)
Conditions in all cases: incubation time: 72 h
BT-549 = system: BT-549
Summary of the method: (§1)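 Vehicle (100) and a positive kill control (0) anchored the normalisation of each plate, and Z'-factor was used for quality control. Breast cancer cell lines in 20 µl suspension were incubated 72 h over compound in 5 µl medium in 384-well plates, followed by CellTiter-Blue at 560/590 nm. The value is normalised viability at a single listed concentration of the series.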

CAL-120 = system: CAL-120
Summary of the method: as §1

CAL-148 = system: CAL-148
Summary of the method: as §1

CAL-51 = system: CAL-51
Summary of the method: as §1

CAL-85-1 = system: CAL-85-1
Summary of the method: as §1

HCC1143 = system: HCC1143
Summary of the method: as §1

HCC1937 = system: HCC1937
Summary of the method: as §1

HDQ-P1 = system: HDQ-P1
Summary of the method: as §1

Hs578T = system: Hs578T
Summary of the method: as §1

MDA-MB-231 = system: MDA-MB-231
Summary of the method: as §1

MDA-MB-436 = system: MDA-MB-436
Summary of the method: as §1

MDA-MB-468 = system: MDA-MB-468
Summary of the method: as §1

Row | Compound | normalised viability (BT-549; 100 nM) | normalised viability (CAL-120; 100 nM) | normalised viability (CAL-148; 10 nM) | normalised viability (CAL-51; 10 nM) | normalised viability (CAL-85-1; 10 nM) | normalised viability (HCC1143; 100 nM) | normalised viability (HCC1937; 100 nM) | normalised viability (HDQ-P1; 10 nM) | normalised viability (Hs578T; 100 nM) | normalised viability (MDA-MB-231; 100 nM) | normalised viability (MDA-MB-436; 100 nM) | normalised viability (MDA-MB-468; 100 nM) | normalised viability (BT-549; 10 nM) | normalised viability (CAL-120; 10 nM) | normalised viability (CAL-148; 1 nM) | normalised viability (CAL-51; 1 nM) | normalised viability (CAL-85-1; 1 nM) | normalised viability (HCC1143; 10 nM) | normalised viability (HCC1937; 10 nM) | normalised viability (HDQ-P1; 1 nM) | normalised viability (Hs578T; 10 nM) | normalised viability (MDA-MB-231; 10 nM) | normalised viability (MDA-MB-436; 10 nM) | normalised viability (MDA-MB-468; 10 nM)
1 | CN1CC[C@H](c2c(O)cc(O)c3c(=O)cc(-c4ccccc4Cl)oc23)[C@H](O)C1 [Alvocidib] | 95.6% | 68.2% | 85.4% | 103% | 93.8% | 69.7% | 69.4% | 106% | 51.5% | 82.9% | 99.7% | 91.5% | – | – | – | – | – | – | – | – | – | – | – | –
2 | CN1CCC(COc2cnc(-c3cccc(Cn4nc(-c5cccc(C#N)c5)ccc4=O)c3)nc2)CC1 | 81.5% | 108% | 79.1% | 92.9% | 94.4% | 109% | 94% | 86.3% | 76.3% | 83.4% | 92.3% | 95% | – | – | – | – | – | – | – | – | – | – | – | –
3 | S=c1[nH]cnc2nc[nH]c12 [Mercaptopurine] | 106% | 90.2% | 94.1% | 108% | 93.9% | 92% | 104% | 106% | 113% | 99.8% | 121% | 108% | – | – | – | – | – | – | – | – | – | – | – | –
4 | COc1cccc2c1C(=O)c1c(O)c3c(c(O)c1C2=O)C[C@@](O)(C(=O)CO)C[C@@H]3O[C@H]1C[C@H](N)[C@H](O)[C@H](C)O1 [Doxorubicin] | – | – | – | – | – | – | – | – | – | – | – | – | 98.9% | 84.6% | 96.6% | 105% | 95.7% | 83.4% | 98.9% | 108% | 99.5% | 78.6% | 92.4% | 98.8%
5 | CN(C)C/C=C/C(=O)Nc1cc2c(Nc3ccc(F)c(Cl)c3)ncnc2cc1O[C@H]1CCOC1 [Afatinib] | 104% | 71.8% | 79.9% | 107% | 84.7% | 71% | 93.4% | 94.3% | 84.2% | 90.3% | 84.7% | 60.9% | – | – | – | – | – | – | – | – | – | – | – | –
6 | CO[C@H]1C[C@@H]2CC[C@@H](C)[C@@](O)(O2)C(=O)C(=O)N2CCCC[C@H]2C(=O)O[C@H]([C@H](C)C[C@@H]2CC[C@@H](OC(=O)C(C)(CO)CO)[C@H](OC)C2)CC(=O)[C@H](C)/C=C(\C)[C@@H](O)[C@@H](OC)C(=O)[C@H](C)C[C@H](C)/C=C/C=C/C=C/1C [Temsirolimus] | – | – | – | – | – | – | – | – | – | – | – | – | 68.2% | 55.8% | 54.5% | 73.9% | 65.7% | 77.1% | 56.5% | 90.9% | 50.2% | 68% | 85.8% | 68.3%
7 | Nc1ccn([C@@H]2O[C@H](CO)[C@@H](O)[C@@H]2O)c(=O)n1 [Cytarabine] | 67.9% | 82.4% | 86.6% | 94.4% | 110% | 86% | 76.3% | 94.6% | 65.1% | 86.3% | 91.9% | 95.1% | – | – | – | – | – | – | – | – | – | – | – | –
8 | Cc1ccc(F)c(NC(=O)Nc2ccc(-c3cccc4[nH]nc(N)c34)cc2)c1 [Linifanib] | – | – | – | – | – | – | – | – | – | – | – | – | 94.8% | 95.2% | 104% | 102% | 99% | 89.4% | 109% | 108% | 82.9% | 103% | 124% | 123%
9 | C=CCNC1=C2C[C@@H](C)C[C@H](OC)[C@H](O)[C@@H](C)/C=C(\C)[C@H](OC(N)=O)[C@@H](OC)/C=C\C=C(/C)C(=O)NC(=CC1=O)C2=O [Tanespimycin] | 32.9% | 72.7% | 94% | 118% | 98.4% | 33.4% | 37.3% | 93.5% | 50.2% | 114% | 26.3% | 109% | – | – | – | – | – | – | – | – | – | – | – | –
10 | CC[C@]1(O)C[C@@H]2CN(CCc3c([nH]c4ccccc34)[C@@](C(=O)OC)(c3cc4c(cc3OC)N(C)[C@H]3[C@@](O)(C(=O)OC)[C@H](OC(C)=O)[C@]5(CC)C=CCN6CC[C@]43[C@@H]65)C2)C1 [Vinblastine] | – | – | – | – | – | – | – | – | – | – | – | – | 26.3% | 19.1% | 107% | 114% | 101% | 40.6% | 20.6% | 106% | 14.7% | 20.1% | 51.5% | 39.3%
11 | Cc1c2oc3c(C)ccc(C(=O)N[C@@H]4C(=O)N[C@H](C(C)C)C(=O)N5CCC[C@H]5C(=O)N(C)CC(=O)N(C)[C@@H](C(C)C)C(=O)O[C@@H]4C)c3nc-2c(C(=O)N[C@@H]2C(=O)N[C@H](C(C)C)C(=O)N3CCC[C@H]3C(=O)N(C)CC(=O)N(C)[C@@H](C(C)C)C(=O)O[C@@H]2C)c(N)c1=O [Dactinomycin] | – | – | – | – | – | – | – | – | – | – | – | – | 17.8% | 31.4% | 46.5% | 77% | 50.3% | 46.5% | 41.3% | 59.2% | 23.3% | 27.3% | 46.4% | 18.9%
12 | C[C@]1(c2nc3c(C(N)=O)cccc3[nH]2)CCCN1 [Veliparib] | 104% | 74.8% | 89.1% | 113% | 90.8% | 75.6% | 85.4% | 103% | 76.7% | 92.3% | 84.1% | 97.6% | – | – | – | – | – | – | – | – | – | – | – | –
13 | OC[C@H]1O[C@@H](n2cnc3c2N=CNC[C@H]3O)C[C@@H]1O [Pentostatin] | 80.9% | 103% | 111% | 88.4% | 103% | 112% | 106% | 106% | 91.5% | 94.9% | 99.1% | 107% | – | – | – | – | – | – | – | – | – | – | – | –
14 | Clc1ccc(C(c2ccccc2Cl)C(Cl)Cl)cc1 (stereo not given) [Mitotane] | 98.5% | 86.3% | 93.1% | 112% | 99.9% | 89.6% | 95.6% | 99.1% | 99.8% | 91.7% | 105% | 98.8% | – | – | – | – | – | – | – | – | – | – | – | –
15 | COc1cc(Nc2ncc3c(n2)-c2ccc(Cl)cc2C(c2c(F)cccc2OC)=NC3)ccc1C(=O)O [MLN8237] | 62.2% | 68.2% | 94.7% | 98.2% | 95% | 71.2% | 65.7% | 111% | 51.3% | 75.5% | 91.5% | 62.6% | – | – | – | – | – | – | – | – | – | – | – | –
